The record followed here is BindingDB's records for doi:10.1021/jm00113a020 (Case Western Reserve University, 1991).

Starred links: 1 amine or outer side, 2 acyl side, 3 side chain; linkers in the order of their positions; H or OH if unused. Residues, ends and D or L forms follow the SMILES beside them. Ethylenediamine = C(CN[*:2])N[*:1]; GABA = NCCCC(=O)O

A short description of this experiment: The compound was tested for binding activity towards Opioid receptor delta 1 in guinea pig brain membranes.
In turn, `CC[C@H](C)[C@H](NC(=O)[C@H](CCCN=C(N)N)NC(=O)[C@H](CCCN=C(N)N)NC(=O)[C@H](CC(C)C)NC(=O)[C@H](Cc1ccccc1)NC(=O)CNC(=O)CNC(=O)[C@@H](N)Cc1ccc(O)cc1)C(=O)N[C@@H](CCCN=C(N)N)C(=O)N1CCC[C@H]1C(=O)N[C@@H](CCCCN)C(=O)N[C@@H](CC(C)C)C(=O)N[C@@H](CCCCN)C(=O)O` [Dynorphin A (1-13)] displayed a Ki of 0.016 µM. Then `NCCCC(=O)NCCCN(CCCNC(=O)[C@H](Cc1ccccc1)NC(=O)CNC(=O)CNC(=O)[C@@H](N)Cc1ccc(O)cc1)C(=O)CCCN` (HELM PEPTIDE1{Y.G.G.F.[NCCCC(=O)NCCCN(CCCN[*:1])C(=O)CCCN]}$$$$V2.0), with 8.43 µM; and `NCCCC(=O)NCCN(CCN(CCNC(=O)[C@H](Cc1ccccc1)NC(=O)CNC(=O)CNC(=O)[C@@H](N)Cc1ccc(O)cc1)C(=O)CCCN)C(=O)CCCN` [4-Amino-N-[2-(4-amino-butyrylamino)-ethyl]-N-[2-((4-amino-butyryl)-{2-[2-(2-{2-[2-amino-3-(4-hydroxy-phenyl)-propionylamino]-acetylamino}-acetylamino)-3-phenyl-propionylamino]-ethyl}-amino)-ethyl]-butyramide] (HELM PEPTIDE1{Y.G.G.F.[NCCCC(=O)NCCN(CCN(CCN[*:1])C(=O)CCCN)C(=O)CCCN]}$$$$V2.0), with > 10 µM; and `NCCCC(=O)NCCN(CCNC(=O)[C@H](Cc1ccccc1)NC(=O)CNC(=O)CNC(=O)[C@@H](N)Cc1ccc(O)cc1)C(=O)CCCN` (HELM PEPTIDE1{Y.G.G.F.[NCCCC(=O)NCCN(CCN[*:1])C(=O)CCCN]}$$$$V2.0), with 22.7 µM. With `NCCCC(=O)NCCNC(=O)[C@H](Cc1ccccc1)NC(=O)CNC(=O)CNC(=O)[C@@H](N)Cc1ccc(O)cc1` (H-YGGF-{Ethylenediamine-GABA}) the figure was 10.1 µM.

In general, Ki refers to the equilibrium dissociation constant of an inhibitor or competing ligand from its target. Read a high Ki as weaker binding.
